molecular target: GST-Bcl-2 (Homo sapiens (Human), UniProt P10415); assay: Time Resolved-Fluorescence Resonance Energy Transfer (TR-FRET) Bcl-2 binding assay; details: GST-Bcl-2 1 nM, F-Bak peptide probe 100 nM, Tb-anti-GST antibody 1 nM; Ki by Wang's equation
In short: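 Ki values derived from TR-FRET displacement of F-Bak peptide from GST-Bcl-2, detected with Tb-labelled anti-GST antibody (ex 340, em 520/495 nm). Compound dilution series started at 50 μM (2× starting concentration); room-temperature incubation 3 hours.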

Chain of GST-Bcl-2 (P10415 whole entry): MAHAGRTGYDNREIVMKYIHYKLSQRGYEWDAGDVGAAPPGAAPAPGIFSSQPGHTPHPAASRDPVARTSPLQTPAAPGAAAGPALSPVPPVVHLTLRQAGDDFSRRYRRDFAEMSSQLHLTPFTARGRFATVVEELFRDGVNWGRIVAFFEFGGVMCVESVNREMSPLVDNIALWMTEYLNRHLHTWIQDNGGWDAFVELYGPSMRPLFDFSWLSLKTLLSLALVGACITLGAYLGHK

SMILES	Ki
CC1(C)CCC(CN2CCN(c3ccc(C(=O)NS(=O)(=O)c4ccc(NCC5CCOCC5)c([N+](=O)[O-])c4)c(Oc4ccc5c(c4)CC(=O)N5)c3)CC2)=C(c2ccc(Cl)cc2)C1 [Example 267, 4-(4-{[2-(4-chlorophenyl)-4,4-dimethylcyclohex-1-en-1-yl]methyl}piperazin-1-yl)-N-({3-nitro-4-[(tetrahydro-2H-pyran-4-ylmethyl)amino]phenyl}sulfonyl)-2-[(2-oxo-2,3-dihydro-1H-indol-5-yl)oxy]benzamide]	28.4 nM
CC1(C)CCC(CN2CCN(c3ccc(C(=O)NS(=O)(=O)c4ccc(NC5CCN(C6CCOCC6)CC5)c([N+](=O)[O-])c4)c(Oc4cccc5[nH]c(C(F)(F)F)cc45)c3)CC2)=C(c2ccc(Cl)cc2)C1 [Example 215, 4-(4-{[2-(4-chlorophenyl)-4,4-dimethylcyclohex-1-en-1-yl]methyl}piperazin-1-yl)-N-({3-nitro-4-[(1-tetrahydro-2H-pyran-4-ylpiperidin-4-yl)amino]phenyl}sulfonyl)-2-{[2-(trifluoromethyl)-1H-indol-4-yl]oxy}benzamide]	2.95 nM
CC1(C)CCC(CN2CCN(c3ccc(C(=O)NS(=O)(=O)c4ccc(NCC5COCCO5)c([N+](=O)[O-])c4)c(Oc4cnc(N)c(Br)c4)c3)CC2)=C(c2ccc(Cl)cc2)C1 (centres unmarked) [Example 361, 2-[(6-amino-5-bromopyridin-3-yl)oxy]-4-(4-{[2-(4-chlorophenyl)-4,4-dimethylcyclohex-1-en-1-yl]methyl}piperazin-1-yl)-N-({4-[(1,4-dioxan-2-ylmethyl)amino]-3-nitrophenyl}sulfonyl)benzamide]	0.015 nM
CC1(C)CCC(CN2CCN(c3ccc(C(=O)NS(=O)(=O)c4ccc(NC5CCN(C6CCOCC6)CC5)c([N+](=O)[O-])c4)c(Oc4cc(F)cc5[nH]ccc45)c3)CC2)=C(c2ccc(Cl)cc2)C1 [Example 210, 4-(4-{[2-(4-chlorophenyl)-4,4-dimethylcyclohex-1-en-1-yl]methyl}piperazin-1-yl)-2-[(6-fluoro-1H-indol-4-yl)oxy]-N-({3-nitro-4-[(1-tetrahydro-2H-pyran-4-ylpiperidin-4-yl)amino]phenyl}sulfonyl)benzamide]	0.02 nM
CN1CCC(Nc2ccc(S(=O)(=O)NC(=O)c3ccc(N4CCN(CC5=C(c6ccc(Cl)cc6)CC(C)(C)CC5)CC4)cc3Oc3ccccc3Cl)cc2S(=O)(=O)C(F)(F)F)CC1 [Example 59, 2-(2-chlorophenoxy)-4-(4-((2-(4-chlorophenyl)-4,4-dimethylcyclohex-1-en-1-yl)methyl)piperazin-1-yl)-N-((4-((1-methylpiperidin-4-yl)amino)-3-((trifluoromethyl)sulfonyl)phenyl)sulfonyl)benzamide]	0.184 nM
CN1CCC(Nc2ccc(S(=O)(=O)NC(=O)c3ccc(N4CCN(CC5=C(c6ccc(Cl)cc6)CC(C)(C)CC5)CC4)cc3Nc3ccccc3Cl)cc2[N+](=O)[O-])CC1 [Example 230, 2-[(2-chlorophenyl)amino]-4-(4-{[2-(4-chlorophenyl)-4,4-dimethylcyclohex-1-en-1-yl]methyl}piperazin-1-yl)-N-({4-[(1-methylpiperidin-4-yl)amino]-3-nitrophenyl}sulfonyl)benzamide]	2.83 nM
CC1(C)CCC(CN2CCN(c3ccc(C(=O)NS(=O)(=O)c4ccc(NC[C@H]5CCCOC5)c([N+](=O)[O-])c4)c(Oc4cc5cc[nH]c5cc4F)c3)CC2)=C(c2ccc(Cl)cc2)C1 [Example 259, 4-(4-{[2-(4-chlorophenyl)-4,4-dimethylcyclohex-1-en-1-yl]methyl}piperazin-1-yl)-2-[(6-fluoro-1H-indol-5-yl)oxy]-N-[(3-nitro-4-{[(3R)-tetrahydro-2H-pyran-3-ylmethyl]amino}phenyl)sulfonyl]benzamide]	0.165 nM
CC1(C)CCC(CN2CCN(c3ccc(C(=O)NS(=O)(=O)c4ccc(NC5CCN(CC6CC6)CC5)c([N+](=O)[O-])c4)c(Oc4cc5cc[nH]c5cc4F)c3)CC2)=C(c2ccc(Cl)cc2)C1 [Example 236, 4-(4-{[2-(4-chlorophenyl)-4,4-dimethylcyclohex-1-en-1-yl]methyl}piperazin-1-yl)-N-[(4-{[1-(cyclopropylmethyl)piperidin-4-yl]amino}-3-nitrophenyl)sulfonyl]-2-[(6-fluoro-1H-indol-5-yl)oxy]benzamide]	0.071 nM
CC1(C)CC(c2ccc(Cl)cc2)=C(CN2CCN(c3ccc(C(=O)NS(=O)(=O)c4ccc(NCC5CCOCC5)c([N+](=O)[O-])c4)c(Oc4cnc(N)c(Cl)c4)c3)CC2)CO1 [Example 387, 2-[(6-amino-5-chloropyridin-3-yl)oxy]-4-(4-{[4-(4-chlorophenyl)-6,6-dimethyl-5,6-dihydro-2H-pyran-3-yl]methyl}piperazin-1-yl)-N-({3-nitro-4-[(tetrahydro-2H-pyran-4-ylmethyl)amino]phenyl}sulfonyl)benzamide]	< 0.01 nM
Cc1c[nH]c2cccc(Oc3cc(N4CCN(CC5=C(c6ccc(Cl)cc6)CC(C)(C)CC5)CC4)ccc3C(=O)NS(=O)(=O)c3ccc(NC4CCN(C)CC4)c([N+](=O)[O-])c3)c12 [Example 66, 4-(4-((2-(4-chlorophenyl)-4,4-dimethylcyclohex-1-en-1-yl)methyl)piperazin-1-yl)-2-((3-methyl-1H-indol-4-yl)oxy)-N-((4-((1-methylpiperidin-4-yl)amino)-3-nitrophenyl)sulfonyl)benzamide]	0.592 nM
CC1(C)CCC(CN2CCN(c3ccc(C(=O)NS(=O)(=O)c4ccc(NCC5CCOCC5)c([N+](=O)[O-])c4)c(Oc4cc5cc[nH]c5cc4Cl)c3)CC2)=C(c2ccc(Cl)cc2)C1 [Example 276, 2-[(6-chloro-1H-indol-5-yl)oxy]-4-(4-{[2-(4-chlorophenyl)-4,4-dimethylcyclohex-1-en-1-yl]methyl}piperazin-1-yl)-N-({3-nitro-4-[(tetrahydro-2H-pyran-4-ylmethyl)amino]phenyl}sulfonyl)benzamide]	0.199 nM
Nc1ccc(Oc2cc(N3CCN(Cc4ccccc4-c4ccc(Cl)cc4)CC3)ccc2C(=O)NS(=O)(=O)c2ccc(NCC3CCOCC3)c([N+](=O)[O-])c2)cc1 [Example 18, 2-(4-aminophenoxy)-4-(4-((4′-chloro-1,1′-biphenyl-2-yl)methyl)piperazin-1-yl)-N-((3-nitro-4-((tetrahydro-2H-pyran-4-ylmethyl)amino)phenyl)sulfonyl)benzamide]	2.49 nM
Cc1nc2ccc(Oc3cc(N4CCN(Cc5ccccc5-c5ccc(Cl)cc5)CC4)ccc3C(=O)NS(=O)(=O)c3ccc(NCC4CCOCC4)c([N+](=O)[O-])c3)cc2s1 [Example 23, 4-(4-((4′-chloro-1,1′-biphenyl-2-yl)methyl)piperazin-1-yl)-2-((2-methyl-1,3-benzothiazol-6-yl)oxy)-N-((3-nitro-4-((tetrahydro-2H-pyran-4-ylmethyl)amino)phenyl)sulfonyl)benzamide]	8.27 nM
CC1(C)CCC(CN2CCN(c3ccc(C(=O)NS(=O)(=O)c4ccc(NCC5CCOCC5)c([N+](=O)[O-])c4)c(Oc4cc(NC(=O)OC(C)(C)C)nc(NC(=O)OC(C)(C)C)c4)c3)CC2)=C(c2ccc(Cl)cc2)C1 [Example 373, 4-(4-{[2-(4-chlorophenyl)-4,4-dimethylcyclohex-1-en-1-yl]methyl}piperazin-1-yl)-2-[(2,6-Bis-tert-butoxycarbonylamino-pyridin-4-yl)oxy]-N-({3-nitro-4-[(tetrahydro-2H-pyran-4-ylmethyl)amino]phenyl}sulfonyl)benzamide]	1200 nM
